Reference: patent publication US11849728B2, “Method for controlling soybean rust fungus having resistance against Qo site inhibitor” (SUMITOMO CHEMICAL COMPANY, LIMITED, priority 2018, dated 2023)

Tested on: soybean rust fungus (Phakopsora pachyrhizi) having an amino acid substitution of F129L on mitochondrial cytochrome b protein
Assay: Leaf disk test for control of soybean rust (Test Example 1 / Comparative Test Example 1)
Type: in vivo
Settings: method of Test Example 1
Procedure: Soybean leaf (cv; Kurosengoku) was punched out to 1 cm diameter to prepare a leaf disk. Each 1 mL of an agar medium (agar concentration 1.2%) was dispensed in 24 well microplate. A piece of the leaf disk was placed on each well. To a mixture of 0.5 μL of Sorpol (registered trademark) 1200KX, 4.5 μL of DMSO, and 5 μL of xylene was added 20 μL of a solution containing 10000 ppm of the test compound in DMSO. The resulting mixture was diluted with ion exchange water to prepare a spray solution containing a predetermined concentration of the test compound. The spray solution was sprayed in 10 μL per one leaf disk. After 1 day, an aqueous suspension of spores of soybean rust fungus (Phakopsora pachyrhizi) having an amino acid substitution of F129L on mitochondrial cytochrome b protein (1.0×10^5/mL) was inoculated onto the leaf disks. After the inoculation, the microplate was placed in a growth chamber (light on for 6 hours, light off for 18 hours, 23° C. temperature, 60% humidity). After 1 day, the leaf disks were air-dried to disappear water droplets on the surface of the leaf disk, and the microplate was placed again in the growth chamber for 12 days. Thereafter, a lesion area of soybean rust disease was assessed. […] Here the untreated means that the spray solution containing the test compound was not sprayed onto the leaf disk.
The test was conducted by using as a test compound the compound 3 or 8 of the present invention, the present compound 6, 12, 13, 22, 38, 40, 48, 51, 64 or 84, pyraclostrobin, azoxystrobin, picoxystrobin, orysastrobin, dimoxystrobin, metominostrobin, or pyribencarb at 12.5 ppm or 3.1 ppm according to a method described in the Test Example 1. The results are indicated in [Table A], [Table B], and [Table C].

SMILES	Lesion area (%) (3.1 ppm)	Lesion area (%) (12.5 ppm)
CO/C=C(\Oc1cc(/C=C/C2CC2)ccc1C)C(=O)OC [Compound 3 of the present invention]	10%	0%
CO/N=C(\Cc1cc(C#CC(C)(C)C)ccc1C)C(=O)OC [Present Compound 6]	0%	0%
CNC(=O)/C(Cc1cc(C#CC(C)(C)OC)ccc1C)=N/OC [Present Compound 12]	0%	0%
COc1nn(C)c(=O)n1Cc1cc(C#C[Si](C)(C)C)ccc1C [Present Compound 13]	30%	0%
CO/C=C(\Oc1cc(-c2ccc(F)cc2)ccc1C)C(=O)OC [Present Compound 22]	10%	0%
Cc1ccc(-c2ccccc2)cc1Cn1c(C(F)F)nn(C)c1=O [Present Compound 40]	0%	0%
CO/C=C(\Oc1cc(/C(C)=N/OCc2cccc(C)c2)ccc1C)C(=O)OC [Present Compound 48]	–	0%
CCCO/N=C(\C)c1ccc(C)c(C/C(=N\OC)C(=O)NC)c1 [Present Compound 51]	–	0%
CO/C=C(\Oc1cc(-c2cccs2)ccc1C)C(=O)OC [Present Compound 64]	10%	0%
CO/C=C(\Oc1cc(/C(C)=N/OCC2CCC2)ccc1C)C(=O)OC [Present Compound 84]	–	0%
CO/C=C(/C(=O)OC)c1ccccc1Oc1cc(Oc2ccccc2C#N)ncn1 [azoxystrobin, reference compound]	100%	100%
CNC(=O)/C(=N/OC)c1ccccc1COc1cc(C)ccc1C [dimoxystrobin, reference compound]	100%	100%
CNC(=O)/C(=N/OC)c1ccccc1Oc1ccccc1 [metominostrobin, reference compound]	100%	100%
CNC(=O)/C(=N/OC)c1ccccc1CO/N=C(C)/C(=N/OC)C(/C)=N/OC [orysastrobin, reference compound]	100%	100%
CO/C=C(/C(=O)OC)c1ccccc1COc1cccc(C(F)(F)F)n1 [picoxystrobin, reference compound]	100%	100%
COC(=O)N(OC)c1ccccc1COc1ccn(-c2ccc(Cl)cc2)n1 [pyraclostrobin, reference compound]	100%	100%
COC(=O)NCc1cc(/C(C)=N/OCc2cccc(C)n2)ccc1Cl [pyribencarb, reference compound]	100%	100%
